Measurements reported in patent US8883833B2, “Substituted benzoazole PDE4 inhibitors for treating inflammatory, cardiovascular and CNS disorders” (Decode Genetics EHF, priority 2007, dated 2014).

What was measured:
[1] = target: human PDE4B isozyme (Homo sapiens, UniProt Q07343); assay: IC50 for human PDE4B isozyme (Table 5); assay type: biochemical; settings: read-out: IC50 for human PDE4B isozyme, hPDE4B
Procedure: (§1) In-vitro assay for PDE4 enzymes. The in-vitro activity of PDE4 enzymes and the in-vitro potency of therapeutic agents described in the present invention was measured using a real-time, enzyme-coupled spectrophotometric assay. By using three different coupling enzymes, the product of the PDE4 reaction is coupled to the oxidation of the reduced form β-nicotinamide adenine dinucleotide (NADH), which dissipation can be monitored spectrophotmetrically at […]. Assay description. Buffer A containing 50 mM Tris, pH 8.0, 16 mM MgCl2 and 80 mM KCl is prepared and stored at room temperature. Buffer B containing 50 mM Tris, pH 8.0 is prepared and stored at toom temperature. Stock solutions of the following reagents are prepared in Buffer B and stored at −20° C.: Adenosine-5′-triphosphate (ATP), cyclic adenosine-5′-monophosphate (cAMP), phosphoenolpyruvate (PEP) and NADH. An assay mix is prepared by mixing Buffer A, […] (TCEP), ATP, PEP, NADH, myokinase (MK), pyruvate kinase (PK), lactate dehydroganese (LDH) and PDE4 to a final volume of 20 mL, which is enough for a single 96-well assay plate. Assay mix (180 μL) and test article (10 μL) in 1:1 DMSO/H2O mixture is pre-incubated at room temperature for 10 min. The enzymatic reaction is initiated by addition of cAMP (10 μL). Final concentration of all components in the assay (200 μL/well) are as follows: 10 mM MgCl2, 50 mM KCl, 5 mM TCEP, 2.5% DMSO, 0.4 mM NADH, 1 mM PEP, 0.04 mM ATP, 5 units MK, 1 unit PK, 1 unit LDH and appropriate amount of PDE4. Reaction progress curves are monitored in a plate reader capable of measuring light absorbance at 340 nm. A decrease in light absorbance at 340 nm is due to oxidation of NADH. Positive controls containing no test article and negative controls containing no test article and no cAMP are included on every assay plate. Reaction rates are determined from the slopes of the linear portions of the progress curves. All data is percent normalized with respect to controls and presented as percent inhibition.

[2] = target: human PDE4D isozyme (Homo sapiens, UniProt Q08499); assay: IC50 for human PDE4D isozyme (Table 4); assay type: biochemical; settings: read-out: IC50 for human PDE4D isozyme, hPDE4D
Procedure: as §1

Chain of human PDE4B isozyme (Q07343 whole entry): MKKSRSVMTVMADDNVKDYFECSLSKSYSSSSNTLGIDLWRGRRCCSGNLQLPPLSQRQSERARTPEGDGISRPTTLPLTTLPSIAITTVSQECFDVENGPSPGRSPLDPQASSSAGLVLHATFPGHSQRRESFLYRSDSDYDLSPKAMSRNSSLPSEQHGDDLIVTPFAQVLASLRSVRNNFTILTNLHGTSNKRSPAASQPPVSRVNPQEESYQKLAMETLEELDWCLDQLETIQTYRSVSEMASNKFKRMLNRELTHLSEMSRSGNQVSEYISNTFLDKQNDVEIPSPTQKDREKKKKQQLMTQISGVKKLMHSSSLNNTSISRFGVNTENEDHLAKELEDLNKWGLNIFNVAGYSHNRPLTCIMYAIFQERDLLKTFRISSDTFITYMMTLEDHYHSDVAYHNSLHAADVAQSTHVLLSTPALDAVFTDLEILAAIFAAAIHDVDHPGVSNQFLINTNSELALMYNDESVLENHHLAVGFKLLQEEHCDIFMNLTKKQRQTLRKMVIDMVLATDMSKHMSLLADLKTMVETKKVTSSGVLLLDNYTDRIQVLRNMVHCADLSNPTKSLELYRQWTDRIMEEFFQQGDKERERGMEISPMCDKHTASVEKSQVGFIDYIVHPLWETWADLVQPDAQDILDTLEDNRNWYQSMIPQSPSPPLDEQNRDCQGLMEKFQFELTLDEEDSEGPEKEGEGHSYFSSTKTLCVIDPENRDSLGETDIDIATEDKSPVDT
Chain of human PDE4D isozyme (Q08499 whole entry): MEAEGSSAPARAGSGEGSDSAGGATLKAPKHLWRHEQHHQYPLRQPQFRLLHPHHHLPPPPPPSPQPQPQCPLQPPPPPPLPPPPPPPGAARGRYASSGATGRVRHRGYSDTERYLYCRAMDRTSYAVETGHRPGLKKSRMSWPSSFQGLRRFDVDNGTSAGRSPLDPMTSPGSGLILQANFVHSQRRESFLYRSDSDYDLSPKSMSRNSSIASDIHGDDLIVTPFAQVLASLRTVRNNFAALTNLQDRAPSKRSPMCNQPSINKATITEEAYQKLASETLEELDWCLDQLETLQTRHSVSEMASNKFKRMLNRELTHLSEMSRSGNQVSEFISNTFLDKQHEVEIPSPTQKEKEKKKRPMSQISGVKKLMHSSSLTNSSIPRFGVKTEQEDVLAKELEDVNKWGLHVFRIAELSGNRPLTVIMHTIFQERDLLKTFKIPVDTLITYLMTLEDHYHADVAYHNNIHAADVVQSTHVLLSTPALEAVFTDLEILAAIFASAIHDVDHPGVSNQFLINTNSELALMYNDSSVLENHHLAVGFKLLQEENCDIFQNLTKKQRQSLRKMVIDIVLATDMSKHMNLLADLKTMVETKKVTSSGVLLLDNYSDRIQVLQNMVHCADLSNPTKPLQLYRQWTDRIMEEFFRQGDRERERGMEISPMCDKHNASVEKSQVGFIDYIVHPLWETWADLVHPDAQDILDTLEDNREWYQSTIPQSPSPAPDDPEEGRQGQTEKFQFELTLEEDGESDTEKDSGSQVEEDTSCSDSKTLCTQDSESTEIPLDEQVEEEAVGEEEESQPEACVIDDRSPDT

SMILES	IC50 [1]	IC50 [2]
CCOC(=O)NC1CCN(Cc2cc3scnc3c(-c3cccc(Cl)c3)c2F)CC1 [BA-45, {1-[4-(3-Chloro-phenyl)-5-fluoro-benzothiazol-6-ylmethyl]-piperidin-4-yl}-carbamic acid ethyl ester]	5 to 20 µM	< 5 µM
Nc1nc2c(-c3ccc4c(c3)OCO4)cc(Cc3ccc(F)cc3)cc2s1 [BA-04, 4-Benzo[1,3]dioxol-5-yl-6-(4-fluoro-benzyl)-benzothiazol-2-ylamine]	< 5 µM	< 5 µM
O=C1CCCN1Cc1cc2scnc2c(-c2cccc(Cl)c2)c1F [BA-54, 1-[4-(3-Chloro-phenyl)-5-fluoro-benzothiazol-6-ylmethyl]-pyrrolidin-2-one]	< 5 µM	< 5 µM
CCNC(=O)Nc1ccc(Cc2cc3sc(N)nc3c(-c3cccc(Cl)c3)c2F)cc1 [BA-29, 1-{4-[2-Amino-4-(3-chloro-phenyl)-5-fluoro-benzothiazol-6-ylmethyl]-phenyl}-3-ethyl-urea]	< 5 µM	< 5 µM
Nc1ccc(Cc2cc3sc(N)nc3c(-c3cccc([N+](=O)[O-])c3)c2O)cc1 [BA-15, 2-Amino-6-(4-amino-benzyl)-4-(3-nitro-phenyl)-benzothiazol-5-ol]	< 5 µM	< 5 µM
Nc1nc2c(-c3cccc([N+](=O)[O-])c3)cc(Cn3cccn3)cc2s1 [BA-10, 4-(3-Nitro-phenyl)-6-pyrazol-1-ylmethyl-benzothiazol-2-ylamine]	< 5 µM	< 5 µM
NC(=O)[C@H]1CCN1c1ccc(Cc2cc3scnc3c(-c3cccc(Cl)c3)c2F)cn1 [BA-75, (R)-1-{5-[4-(3-chloro-phenyl)-5-fluoro-benzothiazol-6-ylmethyl]-pyridin-2-yl}-azetidine-2-carboxylic acid amide]	< 5 µM	< 5 µM

Results, then the compound that gave them:

IC50 [1]	IC50 [2]	SMILES
< 5 µM	< 5 µM	Cn1nccc1C(O)c1cc(-c2ccc3c(c2)OCO3)c2nc(N)sc2c1 (centres unmarked) [BA-06, (2-Amino-4-benzo[1,3]dioxol-5-yl-benzothiazol-6-yl)-(2-methyl-2H-pyrazol-3-yl)-methanol]
< 5 µM	< 5 µM	Nc1nc2c(-c3cccc([N+](=O)[O-])c3)cc(Cc3ccc(F)cc3)cc2s1 [BA-01, 6-(4-fluorobenzyl)-4-(3-nitrophenyl)-benzothiazol-2-yl amine]
< 5 µM	< 5 µM	Nc1nc2c(-c3ccc4c(c3)OCO4)nc(Cc3ccc(F)cc3)nc2s1 [BA-11, 7-Benzo[1,3]dioxol-5-yl-5-(4-fluorobenzyl)-thiazolo[5,4-d]pyrimidin-2-ylamine]
< 5 µM	< 5 µM	Oc1cccc(Cc2cc3scnc3c(-c3cccc(Cl)c3)c2F)c1 [BA-39, 3-[4-(3-chloro-phenyl)-5-fluoro-benzothiazol-6-ylmethyl]-phenol]
< 5 µM	< 5 µM	Nc1ccc(Cc2cc3scnc3c(-c3cccc(Cl)c3)c2F)cn1 [BA-63, 5-[4-(3-chloro-phenyl)-5-fluoro-benzothiazol-6-ylmethyl]-pyridin-2-ylamine]
< 5 µM	< 5 µM	CCOC(=O)N1CCN(Cc2cc3scnc3c(-c3cccc(Cl)c3)c2F)CC1 [BA-49, 4-[4-(3-Chloro-phenyl)-5-fluoro-benzothiazol-6-ylmethyl]-piperazine-1-carboxylic acid ethyl ester]
< 5 µM	< 5 µM	Nc1nc2c(-c3cccc([N+](=O)[O-])c3)cc(Cn3ccnc3)cc2s1 [BA-02, 6-imidazol-1-ylmethyl-4-(3-nitro-phenyl)-benzothiazol-2-ylamine]
< 5 µM	< 5 µM	Fc1c(Cc2ccc(N3CCC3)nc2)cc2scnc2c1-c1cccc(Cl)c1 [BA-61, 6-(6-azetidin-1-yl-pyridin-3-ylmethyl)-4-(3-chloro-phenyl)-5-fluoro-benzothiazole]
< 5 µM	< 5 µM	N#Cc1ccc(Cc2cc3scnc3c(-c3cccc(Cl)c3)c2F)cn1 [BA-60, 5-[4-(3-chloro-phenyl)-5-fluoro-benzothiazol-6-ylmethyl]-pyridine-2-carbonitrile]
